Reference: patent US9403778B2, “Agents that prevent or repair skin damage” (Regents of the University of Minnesota, priority 2012, dated 2016)

Tests used:
[1] = tested on: SKH-1 hairless mouse dorsal skin; assay: Test D. Murine animal studies: thymine dimer formation (DNA damage) in dorsal skin; format: in vivo
Protocol: Test D. Murine Animal Studies
(§1) The UVA, UVB and Solar Simulated Light (SSL) treatment groups included mice that were left untouched in their cages (no preventative treatment) and mice treated topically on their backs with cream vehicle or AR compounds in the cream vehicle and rubbed with a glove. At 20 minutes post treatment the mice were exposed to 180 mJ/cm^2 of UVA, UVB or SSL equivalent to one hour of noon day summer sunlight. One, four, eight and twenty-four hours post UVA, UVB or SSL exposure, the mice were euthanized by IP Ketamine/Xylazine injection and bled.
(§2) The no UVA, UVB and SSL treatment groups included mice which were left untouched in their cages (no preventative treatment) and mice treated topically on their backs with cream vehicle and AR compounds in cream vehicle as indicated above. After treatment the mice were placed back into their cages, away from sunlight. One, four, eight and twenty-four hours post treatment, the no UVA, UVB and SSL treated mice were euthanized by IP Ketamine/Xylazine injection and bled.
(§3) For the animal groups above, post euthanasia, the dorsal and belly skin was collected and preserved in Zamboni's fixative for future studies. […] The skin was analyzed in-house by immunohistostaining (p53, thymine dimer, XPC and other DNA repair enzymes, collagen, elastin, etc.) and confocal microscopy. […]

xpc [2] = assay: Test E. Human skin study: xpc production
Protocol: Human skin was obtained from the University of Minnesota BioNet Tissue Procurement Facility and stored on ice or in cell culture media until ready to be used. All samples were kept away from sunlight. The skin was cut into pieces and placed in 6-well cell culture plates with a small amount of culture media at the bottom of the well but not enough to cover the top of the tissue. Using a gloved hand, the skin was rubbed with cream vehicle or AR drug in the cream vehicle. At 20 minutes post treatment the skin was exposed to 180 mJ/cm^2 of UVA, UVB or Solar Simulated Light (SSL) equivalent to one hour of noon day summer sunlight. Post UVA, UVB or SSL exposure, additional media was placed in the bottom of the wells and the plates moved to the tissue culture incubator (37° C., 5% CO2). Samples were removed from the incubator and placed in Zamboni's fixative for future studies at one, four, eight and twenty-four hours post UVA, UVB or SSL exposure.
Samples not exposed to UVA, UVB or SSL light were placed into 6-well plates with a small amount of cell culture media but not enough to cover the top of the tissue and stored in the cell culture incubator. […]
All skin samples were analyzed in-house by immunohistostaining (p53, thymine dimer, XPC and other DNA repair enzymes, collagen, elastin, etc.) and confocal microscopy.

xpc [3] = assay: Test D. Murine animal studies: up-regulation of DNA repair enzyme xpc in dorsal skin; format: in vivo, mouse; settings: 5% in cream vehicle, topical
Protocol: as §1, §2, §3

Q: Which results are given for `C[C@@]12C(=O)NC(=O)N3CCCN4C(=O)NC(=O)[C@]1(C)[C@H]4[C@H]32` [Compound 10]?
A: thymine dimer immuno-reactivity of skin section ([1]; 5% in cream vehicle, topical, no SSL irradiation, 8 hour time point): completely negative; xpc levels / xpc staining in non-irradiated human skin (xpc [2]; human skin not exposed to SSL, compared with SSL only control): higher levels of xpc than the SSL only control; time post application at which xpc stimulation is still evident (xpc [2]; non SSL damaged human skin): ≥ 8 h; xpc immuno-reactivity (xpc antibody) (xpc [3]; no SSL irradiation): significant immuno-reactivity

Q: For `CCCC(=O)N(CCn1cc(C)c(=O)[nH]c1=O)CCn1cc(C)c(=O)[nH]c1=O` [Compound 24a], which “protection against thymine dimer formation (DNA damage)” value ([1]; in cream vehicle, topical 20 minutes prior to UVB 6 KJ/m^2, harvested 4 hours after irradiation, vs UV only control) is on record?
A: The value was “protected against thymine dimer formation”.

Q: What about the “xpc production in SSL exposed skin” value (xpc [3]; solar simulated light equivalent to 1 h noon time summer sun light, vs SSL cream-only control) of the same molecule?
A: The value was “stimulated xpc production”.
